Measurements: ChEMBL document CHEMBL1177707 (J Med Chem, 2010)

Legend:
[1] = Inhibition of N-terminal His-tagged Mycobacterium tuberculosis H37Rv IMPDH; conditions: read-out: Ki(app)
[2] = target: Inosine-5'-monophosphate dehydrogenase 1 (Homo sapiens, UniProt P20839); experiment: Inhibition of human IMPDH1
[3] = target: Inosine-5'-monophosphate dehydrogenase 2 (Homo sapiens, UniProt P12268); experiment: Inhibition of human IMPDH2

Inosine-5'-monophosphate dehydrogenase 1, sequence (P20839 whole entry): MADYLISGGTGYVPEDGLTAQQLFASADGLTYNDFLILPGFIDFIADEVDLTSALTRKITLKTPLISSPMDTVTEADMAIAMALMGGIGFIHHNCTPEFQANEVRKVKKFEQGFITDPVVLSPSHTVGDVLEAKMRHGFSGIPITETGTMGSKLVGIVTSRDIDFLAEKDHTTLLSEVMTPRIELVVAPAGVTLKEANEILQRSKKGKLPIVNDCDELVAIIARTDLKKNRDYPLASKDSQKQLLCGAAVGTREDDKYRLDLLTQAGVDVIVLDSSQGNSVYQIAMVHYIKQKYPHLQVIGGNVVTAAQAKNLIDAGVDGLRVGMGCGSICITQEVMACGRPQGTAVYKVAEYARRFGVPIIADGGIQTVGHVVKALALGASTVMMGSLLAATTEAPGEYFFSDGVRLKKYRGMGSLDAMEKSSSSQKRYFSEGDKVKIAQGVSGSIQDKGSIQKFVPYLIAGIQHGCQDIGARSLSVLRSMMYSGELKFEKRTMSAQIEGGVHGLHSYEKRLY

Row | Compound | Ki [1] | Ki ([2]; read-out: Ki) | further results
1 | COc1c(C)c2c(c(O)c1CCOP(=O)(O)CP(=O)(O)OC[C@H]1O[C@@H](n3cnc4c(N)nc(-c5ccccc5)nc43)[C@H](O)[C@@H]1O)C(=O)OC2 | > 100000 nM | – | –
2 | COc1c(C)c2c(c(O)c1C/C=C(\C)CCC(=O)O)C(=O)OC2 [MYCOPHENOLIC ACID] | 62000 nM | – | –
3 | CCc1nc(N)c2ncn([C@@H]3O[C@H](CNS(=O)(=O)CS(=O)(=O)NCCc4c(O)c5c(c(C)c4OC)COC5=O)[C@@H](O)[C@H]3O)c2n1 | > 100000 nM | – | –
4 | COc1c(C)c2c(c(O)c1CCNS(=O)(=O)CS(=O)(=O)NC[C@H]1O[C@@H](n3cnc4c(N)nc(-c5ccccc5)nc43)[C@H](O)[C@@H]1O)C(=O)OC2 | > 100000 nM | – | –
5 | COc1c(C)c2c(c(O)c1C/C=C(\C)Cn1cc(COC[C@H]3O[C@@H](n4cnc5c(N)ncnc54)[C@H](O)[C@@H]3O)nn1)C(=O)OC2 | – | 70 nM | –
6 | COc1c(C)c2c(c(O)c1C/C=C(\C)COP(=O)(O)CP(=O)(O)OC[C@H]1O[C@@H](n3cnc4c(N)ncnc43)[C@H](O)[C@@H]1O)C(=O)OC2 | > 100000 nM | – | Ki ([3]; read-out: Ki(app)): 380 nM; Ki ([2]; read-out: Ki(app)): 520 nM
7 | C#Cc1nc(N)c2ncn([C@@H]3O[C@H](CNS(=O)(=O)CS(=O)(=O)NCCc4c(O)c5c(c(C)c4OC)COC5=O)[C@@H](O)[C@H]3O)c2n1 | > 100000 nM | – | –
8 | COc1c(C)c2c(c(O)c1CCNCc1cn(C[C@H]3O[C@@H](n4cnc5c(N)ncnc54)[C@H](O)[C@@H]3O)nn1)C(=O)OC2 | > 100000 nM | 14000 nM | Ki ([3]; read-out: Ki): 2200 nM
9 | COc1c(C)c2c(c(O)c1CCn1cc(COC[C@H]3O[C@@H](n4cnc5c(N)ncnc54)[C@H](O)[C@@H]3O)nn1)C(=O)OC2 | > 100000 nM | 1500 nM | Ki ([3]; read-out: Ki): 200 nM
